Tests used:
Parameters in all cases: made in house; host or cells: E. coli Nico21(DE3), pET15b
LOX4 [1] = biological target: T1, LOX4 (Arabidopsis thaliana, UniProt Q9FNX8); experiment: Free thiols of LOX4 (Ellman, DTNB); details: LOX4 4.2 µM incubated 20 min with 12-OPDA; control 7.6 ± 0.1
T1 sequence (Q9FNX8 71-926): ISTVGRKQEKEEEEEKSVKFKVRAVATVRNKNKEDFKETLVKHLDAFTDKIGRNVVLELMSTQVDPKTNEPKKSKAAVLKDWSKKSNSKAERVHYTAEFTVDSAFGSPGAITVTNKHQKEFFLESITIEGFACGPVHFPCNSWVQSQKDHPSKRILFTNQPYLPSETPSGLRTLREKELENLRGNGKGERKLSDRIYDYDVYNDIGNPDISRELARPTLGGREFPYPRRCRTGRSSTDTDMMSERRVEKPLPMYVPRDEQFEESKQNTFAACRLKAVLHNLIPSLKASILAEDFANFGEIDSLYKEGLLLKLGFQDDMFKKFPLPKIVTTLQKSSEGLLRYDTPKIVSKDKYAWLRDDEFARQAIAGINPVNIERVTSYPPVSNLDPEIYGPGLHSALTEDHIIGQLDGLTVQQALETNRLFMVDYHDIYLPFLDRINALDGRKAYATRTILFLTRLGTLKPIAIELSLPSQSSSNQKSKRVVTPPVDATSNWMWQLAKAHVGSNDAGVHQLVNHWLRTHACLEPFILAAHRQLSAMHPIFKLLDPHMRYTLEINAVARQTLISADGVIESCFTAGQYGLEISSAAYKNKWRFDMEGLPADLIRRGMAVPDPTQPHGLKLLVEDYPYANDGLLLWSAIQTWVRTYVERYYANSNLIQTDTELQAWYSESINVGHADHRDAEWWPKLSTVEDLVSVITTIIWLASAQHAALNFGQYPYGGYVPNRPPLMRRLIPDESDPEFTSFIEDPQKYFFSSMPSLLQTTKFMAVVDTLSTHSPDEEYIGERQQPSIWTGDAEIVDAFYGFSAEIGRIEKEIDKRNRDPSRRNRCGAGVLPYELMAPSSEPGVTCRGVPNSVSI
Protocol: The iron content was analyzed as described. Free protein thiols were determined as described in [80] with slight variations. Briefly, 150 µL LOX4 (4.2 µM) was mixed with 1.5 µL 30 mM 12-OPDA (in EtOH) or EtOH (solvent control). After 20 min of incubation at 25 °C, samples were mixed with 10 µL dithionitrobencene (DTNB, 2 mM in 40 mM K-Pi, pH 8.0) and incubated for 30 min in the dark. Samples were measured at 412 nm, ε412nm = 13,600 […] (KC4 microplate reader, Biotec, 25 °C) for determination of the thiol/protein ratio with background correction (150 µL 40 mM K-Pi, pH 8.0, 10 µL DTNB 2 mM, 1.5 µL ligand stock or EtOH).

LOX2 = biological target: T2, LOX2 (Arabidopsis thaliana, UniProt P38418); experiment: Intrinsic fluorescence of LOX2; type: binding; details: as Figure 5B; for Emission maximum: control 336.5±0.6, in nm (unit assumed); for Relative fluorescence intensity at emission maximum: λExc = 280 nm, control 125.5±2.0
T2 sequence (P38418 71-896): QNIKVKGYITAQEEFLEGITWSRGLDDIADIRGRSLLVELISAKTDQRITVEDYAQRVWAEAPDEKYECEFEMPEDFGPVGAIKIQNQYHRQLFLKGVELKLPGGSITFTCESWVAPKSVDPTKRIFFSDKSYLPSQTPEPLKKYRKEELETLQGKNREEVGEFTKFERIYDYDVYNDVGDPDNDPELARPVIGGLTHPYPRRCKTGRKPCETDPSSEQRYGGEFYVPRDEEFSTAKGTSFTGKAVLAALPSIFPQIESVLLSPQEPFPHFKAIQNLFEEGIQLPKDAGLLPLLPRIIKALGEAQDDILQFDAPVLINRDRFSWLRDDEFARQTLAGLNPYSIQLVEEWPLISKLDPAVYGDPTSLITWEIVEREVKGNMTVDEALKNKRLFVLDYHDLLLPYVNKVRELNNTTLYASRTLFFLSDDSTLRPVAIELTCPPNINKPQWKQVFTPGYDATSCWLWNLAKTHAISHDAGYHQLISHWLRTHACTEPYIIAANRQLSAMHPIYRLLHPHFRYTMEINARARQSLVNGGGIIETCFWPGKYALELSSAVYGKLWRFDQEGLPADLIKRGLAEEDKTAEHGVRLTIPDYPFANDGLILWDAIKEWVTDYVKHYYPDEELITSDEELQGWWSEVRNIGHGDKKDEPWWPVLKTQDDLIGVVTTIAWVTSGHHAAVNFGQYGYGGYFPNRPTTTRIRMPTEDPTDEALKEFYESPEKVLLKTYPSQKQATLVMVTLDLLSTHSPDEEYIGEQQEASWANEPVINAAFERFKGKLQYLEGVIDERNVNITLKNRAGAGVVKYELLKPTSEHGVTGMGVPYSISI
Protocol: (§1) Figure 5 Analysis of the interaction of 12-OPDA and MJ with LOX4. […] LOX4 (0.22 µg/µL) was incubated with compounds at indicated concentrations for 10 min at 30 °C, and residual LOX activity was measured spectrophotometrically by the injection of 3 µL incubation mixture into 123 µL LeA (4.8 µM in 50 mM Tris-HCl, pH 7.2). […] (B) Intrinsic fluorescence of LOX4 incubated with 12-OPDA, MJ and solvent (control). Here, 120 µL LOX4 (0.2 µg/µL) was mixed with 15 µL chemical (1.4 mM in 50 mM K-Pi, pH 8.0) or solvent (control) and analyzed for intrinsic fluorescence emission after excitation at λExc = 280 nm. Mean graphs are shown (n = 4).
Int. J. Mol. Sci. 2021, 22, x FOR PEER REVIEW 11 of 17
Figure S7. Interaction and activity studies of LOX2, LOX3 and LOX6. (A) LOX2, LOX3 and LOX6 activities in presence of increasing amounts of MJ and 12-OPDA. Analysis was performed as described for IC50 determination of LOX4 (see Figure 5A). 100% activity […]
(B) Intrinsic fluorescence of LOX2 and LOX3 incubated with 12-OPDA, MJ and solvent control. Analysis was performed as in Figure 5B. […]

LOX4 [2] = biological target: T1, LOX4; experiment: Intrinsic fluorescence of LOX4; type: binding; details: 156 µM chemical; λExc = 280 nm; control 98.1 ± 3.9
Protocol: as §1

| SMILES | Free thiols (Cys residues) of LOX4 after incubation (LOX4 [1]) [mol·mol^−1] | Emission maximum (LOX2) | Relative fluorescence intensity at emission maximum (LOX2) | Relative fluorescence emission at 333 nm (LOX4 [2]) |
| --- | --- | --- | --- | --- |
| CCC=CCC1C(=O)C=CC1CCCCCCCC(=O)O (stereo not drawn) [12-OPDA, cis-(+)-12-oxophytodienoic acid] | 5.9 ± 0.1 | 337.2±0.3 | 117.5±2.0 | 86.2 ± 3.9 |
| CC/C=C\CC1C(=O)CCC1CC(=O)OC (stereo not shown) [MJ, methyl jasmonate] | – | 337.3±0.6 | 119.7±2.7 | 98.0 ± 2.4 |

— publication PMC8508710, “Biochemical Characterization of 13-Lipoxygenases of Arabidopsis thaliana” (International Journal of Molecular Sciences, 2021)
